Measurements as given in patent US10391070B2, “Compositions and methods for treating neurological diseases or injury” (MUSC FOUNDATION FOR RESEARCH DEVELOPMENT, priority 2012, dated 2019).

Legend:
zebrafish larvae = assay: Zebrafish larval toxicity (NOEC, lethal dose); type: in vivo; settings: for Lethal dose / Highest concentration tested for anti-seizure activity: 7 dpf zebrafish larvae; for Lethal dose: up to 5 h treatment; for Highest concentration tested for anti-seizure activity: highest sub-lethal dose
PTZ-induced seizures = assay: PTZ-induced seizure (swim activity) model in zebrafish larvae; type: in vivo, zebrafish (Danio rerio)
PGAM5 = assay: Western blot, PGAM5 cleavage; type: cell-based, mouse; settings: HT22, glutamate
Experimental: HT-22 cells were cultured and treated as described above for the qRT-PCR experiments. After 16 hrs, the media was collected and the cells harvested by trypsanization. After centrifugation, pelleted cells were washed with cold HBSS Ca^2+/Mg^2+ Free, followed by lysis with a low salt lysis buffer (50 mM Tris-HCl, pH 7.4, 150 mM NaCl, 10% glycerol, 0.5 Triton X-100, 1× protease and phosphatase inhibitor cocktail) for 30 min, followed by a 15-s sonication pulse at 30 W. For Western blot analysis, the cell lysates were denatured with LDS loading buffer (Invitrogen) and run on Nupage 4-12% Tris-glysine gradient gels (Invitrogen) after centrifugation. Phosphorylated Drp1 (Ser637) (Cell Signaling) and total Drp1 (C5) (Santa Cruz), PGAM5 (K16) (Santa Cruz Biotechnology), Actin (Sigma-Aldritch) and alpha-Tubulin (Santa Cruz Biotechnology) were assessed with primary antibody, followed by rabbit, mouse, or goat IgG-HRP secondary antibody. The blot was developed using Pierce Thermo Dura-ECL reagent (Thermo-Fisher) and visualized using an ImageQuant LAS 4000 (GE). Digital images of membranes were quantified by computer-assisted densitometry using Image J 1.42q (National Institutes of Health, MD).

Molecule	Lethal dose (zebrafish larvae) [mM]	Highest concentration tested for anti-seizure activity (zebrafish larvae) [mM]	increase in lower band (cleavage product) of PGAM5 (PGAM5; 125 nM)	further results
CC1=CC(=O)c2ccccc2C1=O [VK3, menadione, reference compound]	0.007	0.006	–	highest NOEC (zebrafish larvae; zebrafish larvae): 10 µM; fold reduction of distance traveled from PTZ levels (PTZ-induced seizures; 7 dpf zebrafish, 1.5 μM): 0.5 fold; fold reduction of PTZ-induced swim behavior (PTZ-induced seizures; 7 dpf zebrafish, 3 μM): 2 fold; fold reduction of distance traveled after PTZ treatment (PTZ-induced seizures; 7 dpf zebrafish, 6 μM, 1 h pretreatment, 15 mM PTZ): more than 4 fold; concentrations reducing seizure activity (PTZ-induced seizures; PTZ-treated 6 dpf zebrafish, dose dependent): 1.5 to 6 µM
O=C1C=C(NCc2ccccc2)C(=O)c2ccccc21 [Compound 2j, 2-(benzylamino)naphthalene-1,4-dione]	0.012	0.010	completely attenuated	–
C#CCNC1=CC(=O)c2ccccc2C1=O [Compound 2h, 2-(prop-2-yn-1-ylamino)naphthalene-1,4-dione]	>0.02	0.02	–	–
menaquinones [VK2, reference compound]	–	–	–	increase in lower band (cleavage product) of PGAM5 (PGAM5; 500 nM): completely attenuated; reduction of seizures (PTZ-induced seizures; PTZ-treated 6 dpf zebrafish, up to 100 mM): neither were found to reduce seizures
O=C1C=C(NCc2cccc(Cl)c2)C(=O)c2ccccc21 [Compound 2q, 2-((3-chlorobenzyl)amino)naphthalene-1,4-dione]	>0.02	0.02	completely attenuated	fold reduction of PTZ-induced swim activity (distance traveled) (PTZ-induced seizures; 7 dpf zebrafish, 1 h pretreatment, 15 mM PTZ, 2j 10 μM, 2h 20 μM, 2q 20 μM, 3n 8 μM): more than two fold
